Measured values reported in the supplement of paper PMC10307832.

Experiments:
Test in all cases: relative viability (nuclei count vs DMSO), 5 days (fraction); higher = more cells survive
Cediranib + Lapatinib = compound: COc1cc2c(Oc3ccc4[nH]c(C)cc4c3F)ncnc2cc1OCCCN1CCCC1 [Cediranib] + CS(=O)(=O)CCNCc1ccc(-c2ccc3ncnc(Nc4ccc(OCc5cccc(F)c5)c(Cl)c4)c3c2)o1 [Lapatinib] (partner 2 µM)
Outline: (§1)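 The day after seeding in 1536-well plates, lung cancer cell lines were treated by pin tool with a single drug, or with a fixed anchor-drug dose together with five library-drug doses (not always all listed) in √10 steps. After 5 days, a combined fix-and-stain solution (final 0.05% Triton X-100, 1% formaldehyde, 1 ug/ml Hoechst) was added. Nuclei counted on 4× images gave relative viability as treated counts over vehicle counts, reported as the median of duplicate plates.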

Halofuginone + Alpelisib = compound: O=C(C[C@H]1NCCC[C@@H]1O)Cn1cnc2cc(Br)c(Cl)cc2c1=O (racemic) [Halofuginone] + Cc1nc(NC(=O)N2CCC[C@H]2C(N)=O)sc1-c1ccnc(C(C)(C)C(F)(F)F)c1 [Alpelisib] (partner 2 µM)
Outline: as §1

Halofuginone + Foretinib = compound: O=C(C[C@H]1NCCC[C@@H]1O)Cn1cnc2cc(Br)c(Cl)cc2c1=O (racemic) [Halofuginone] + COc1cc2c(Oc3ccc(NC(=O)C4(C(=O)Nc5ccc(F)cc5)CC4)cc3F)ccnc2cc1OCCCN1CCOCC1 [Foretinib] (partner 0.25 µM)
Outline: as §1

Cediranib + Crizotinib = compound: COc1cc2c(Oc3ccc4[nH]c(C)cc4c3F)ncnc2cc1OCCCN1CCCC1 [Cediranib] + C[C@@H](Oc1cc(-c2cnn(C3CCNCC3)c2)cnc1N)c1c(Cl)ccc(F)c1Cl [Crizotinib] (partner 1 µM)
Outline: as §1

| Cell Line | relative viability (Cediranib + Lapatinib; first compound 0.04 µM) | relative viability (Cediranib + Lapatinib; first compound 0.1265 µM) | relative viability (Cediranib + Lapatinib; first compound 0.4 µM) | relative viability (Cediranib + Lapatinib; first compound 1.265 µM) | relative viability (Cediranib + Lapatinib; first compound 4 µM) | relative viability (Halofuginone + Alpelisib; first compound 0.001 µM) | relative viability (Halofuginone + Alpelisib; first compound 0.003162 µM) | relative viability (Halofuginone + Alpelisib; first compound 0.01 µM) | relative viability (Halofuginone + Alpelisib; first compound 0.03162 µM) | relative viability (Halofuginone + Alpelisib; first compound 0.1 µM) | relative viability (Halofuginone + Foretinib; first compound 0.001 µM) | relative viability (Halofuginone + Foretinib; first compound 0.003162 µM) | relative viability (Halofuginone + Foretinib; first compound 0.01 µM) | relative viability (Halofuginone + Foretinib; first compound 0.03162 µM) | relative viability (Halofuginone + Foretinib; first compound 0.1 µM) | relative viability (Cediranib + Crizotinib; first compound 0.04 µM) | relative viability (Cediranib + Crizotinib; first compound 0.1265 µM) | relative viability (Cediranib + Crizotinib; first compound 0.4 µM) | relative viability (Cediranib + Crizotinib; first compound 1.265 µM) | relative viability (Cediranib + Crizotinib; first compound 4 µM) |
| --- | --- | --- | --- | --- | --- | --- | --- | --- | --- | --- | --- | --- | --- | --- | --- | --- | --- | --- | --- | --- |
| NCI-H838 | 1.02 | 0.796 | 0.914 | 0.737 | 1.11 | 1.05 | 0.961 | 1.05 | 0.566 | 0.111 | 1.18 | 1.02 | 1 | 0.681 | 0.395 | 0.798 | 0.898 | 0.817 | 0.811 | 0.748 |
| NCI-H1299 | 1.02 | 0.958 | 0.995 | 0.933 | 0.983 | 1.04 | 1.09 | 1.02 | 1.01 | 1.04 | 1.13 | 1.13 | 1.07 | 1.09 | 0.561 | 0.982 | 0.945 | 0.957 | 0.92 | 0.929 |
| NCI-H1355 | 1.01 | 0.693 | 0.955 | 0.798 | 1.03 | 0.811 | 0.781 | 0.894 | 0.79 | 0.743 | 1.02 | 0.95 | 0.88 | 0.983 | 0.884 | 1.1 | 0.977 | 1.08 | 0.992 | 1.31 |
| NCI-H1437 | 0.87 | 0.791 | 0.764 | 0.842 | 1.03 | 0.996 | 0.957 | 0.979 | 0.673 | 0.294 | 1.31 | 1.26 | 1.22 | 1.2 | 1.21 | 0.966 | 0.87 | 0.823 | 0.892 | 0.879 |
| NCI-H1563 | 0.89 | 0.66 | 0.935 | 0.822 | 0.78 | 0.874 | 0.935 | 0.851 | 0.633 | 0.508 | 0.985 | 0.879 | 0.905 | 0.662 | 0.509 | 0.919 | 0.866 | 0.854 | 0.833 | 0.894 |
| NCI-H1651 | 0.819 | 0.919 | 0.825 | 0.668 | 0.855 | 0.906 | 0.9 | 0.889 | 0.66 | 0.278 | 0.91 | 0.814 | 0.696 | 0.519 | 0.416 | 0.887 | 0.904 | 0.876 | 0.89 | 0.976 |
| NCI-H1666 | 0.678 | 0.339 | 0.554 | 0.541 | 0.69 | 0.936 | 0.791 | 0.857 | 0.92 | 0.607 | 0.979 | 0.934 | 1.01 | 0.952 | 0.936 | 1.02 | 1.02 | 0.896 | 1.01 | 0.874 |
| NCI-H1703 | 1.36 | 1.07 | 0.361 | 0.354 | 0.341 | 0.334 | 0.398 | 0.239 | 0.27 | 0.165 | 0.301 | 0.295 | 0.363 | 0.294 | 0.337 | 0.721 | 0.707 | 0.188 | 0.214 | 0.191 |
| NCI-H1734 | 0.913 | 0.989 | 1.07 | 0.826 | 1.21 | 0.685 | 0.679 | 0.674 | 0.612 | 0.452 | 0.961 | 0.809 | 0.831 | 0.751 | 0.485 | 0.604 | 0.612 | 0.551 | 0.691 | 0.695 |
| NCI-H1755 | 1.14 | 0.778 | 1.01 | 1.05 | 0.941 | 0.866 | 0.937 | 0.891 | 0.923 | 0.588 | 0.943 | 0.955 | 0.861 | 0.895 | 0.877 | 0.888 | 0.845 | 0.838 | 0.855 | 0.848 |
| NCI-H1915 | 1.01 | 0.731 | 0.924 | 0.969 | 0.983 | 1.08 | 1.11 | 1.05 | 0.921 | 0.929 | 1.12 | 1.16 | 1.07 | 1.03 | 0.97 | 1.01 | 0.851 | 0.883 | 0.873 | 0.832 |
| NCI-H1944 | 0.969 | 0.8 | 0.78 | 0.705 | 0.908 | 0.829 | 0.85 | 0.827 | 0.839 | 0.68 | 0.865 | 0.89 | 0.853 | 0.899 | 0.561 | 1.14 | 1.03 | 0.994 | 1.05 | 1.06 |
| NCI-H1975 | 1.06 | 1.26 | 0.801 | 0.905 | 0.835 | 0.684 | 0.674 | 0.719 | 0.302 | 0.115 | 0.945 | 1.04 | 0.796 | 0.79 | 0.251 | 1.16 | 1.05 | 0.92 | 1.02 | 0.913 |
| NCI-H1993 | 0.8 | 0.675 | 0.815 | 0.755 | 0.887 | 0.696 | 0.677 | 0.664 | 0.711 | 0.57 | 0.911 | 0.749 | 0.727 | 0.772 | 0.734 | 0.968 | 0.902 | 0.886 | 0.865 | 0.858 |
| NCI-H2009 | 0.882 | 0.239 | 0.94 | 0.899 | 1.15 | 1.23 | 1.2 | 1.12 | 0.969 | 0.393 | 1.21 | 1.23 | 1.13 | 1.18 | 0.775 | 1.12 | 1.03 | 0.989 | 1.06 | 1.04 |
| NCI-H2023 | 0.852 | 0.0771 | 0.716 | 0.654 | 0.878 | 0.645 | 0.624 | 0.519 | 0.281 | 0.147 | 1.11 | 0.636 | 0.826 | 0.288 | 0.139 | 0.579 | 0.703 | 0.489 | 0.575 | 0.588 |
